Assay results as given in the NIST ThermoML archive (doi:10.1021/acs.jced.7b00946).

Experiment: molar heat capacity at constant pressure
Settings: Gas, Flow calorimetry

C=C(F)C(F)(F)F [2,3,3,3-tetrafluoro-1-propene]
Settings | molar heat capacity at constant pressure [J/K/mol]
373.15 K, 3498 kPa | 410.55
373.15 K, 4114 kPa | 394.58
373.15 K, 4160 kPa | 387.74
373.15 K, 4441 kPa | 288.53
373.15 K, 4642 kPa | 273.7
373.15 K, 4921 kPa | 245.19
373.15 K, 5047 kPa | 238.35
373.15 K, 5955 kPa | 210.98
373.15 K, 6023 kPa | 210.98
373.15 K, 8020 kPa | 187.03
373.15 K, 8021 kPa | 188.17
373.15 K, 8024 kPa | 188.17
393.15 K, 4039 kPa | 218.96
393.15 K, 4040 kPa | 217.82
393.15 K, 4943 kPa | 345.55
393.15 K, 4944 kPa | 339.84
393.15 K, 5417 kPa | 322.74
393.15 K, 5958 kPa | 278.26
393.15 K, 6022 kPa | 275.98
393.15 K, 7949 kPa | 205.27
393.15 K, 8043 kPa | 205.27
393.15 K, 10032 kPa | 188.17
413.15 K, 4015 kPa | 173.34
413.15 K, 4989 kPa | 207.56
413.15 K, 5045 kPa | 208.7
413.15 K, 6037 kPa | 244.05
413.15 K, 6963 kPa | 245.19
413.15 K, 6965 kPa | 241.77
413.15 K, 8042 kPa | 228.08
413.15 K, 8043 kPa | 228.08
413.15 K, 10030 kPa | 201.85
